{
  "source": "paper PMC8577994",
  "about": "(Cell Reports, 2021)",
  "key": {"[1]": {"test_system": "HCV", "conditions": "cited from earlier work"}, "[2]": {"assay": "in vitro", "conditions": "human"}, "[3]": {"test_system": "PI3P", "type": "cell-based"}, "[4]": {"assay": "in vitro", "conditions": "human", "remark": "listed apart in the source"}, "[5]": {"assay": "in vitro", "conditions": "human", "remark": "listed apart in the source"}, "[6]": {"test_system": "HCV reporter virus JcR2a", "type": "cell-based, hepatitis C virus", "conditions": "HCV infection system, Huh7-derived cells expressing CD81"}, "[7]": {"test_system": "SARS-CoV-2", "assay": "qRT-PCR-based SARS-CoV-2 replication assay in Calu-3 cells", "type": "cell-based"}, "[8]": {"test_system": "PI4P", "type": "cell-based", "conditions": "Huh7-Lunet/T7 cells expressing HCV NS3-5B, 1 µM for 2 h"}, "[9]": {"test_system": "HA-nsp3-4-V5-induced DMVs", "type": "cell-based"}, "[10]": {"test_system": "SARS-CoV-2"}, "[11]": {"test_system": "Huh7-Lunet/T7 cells"}, "[12]": {"test_system": "SARS-CoV-2", "assay": "microbe, parasite or virus in culture", "conditions": "Severe acute respiratory syndrome coronavirus 2, A549-ACE2, read-out: EC50, SARS-CoV-2"}},
  "note": "Like-named read-outs stand apart in the source and are kept apart here.",
  "data": [
    {"smiles": "Cn1cnc(N)c2ncnc1-2", "note": "[3-methyladenine]", "values": [
      {"measurement": "abundance of LC3-II in HCV-infected cells", "setting": "[1]; PI3K inhibitor, ref Su et al., 2011", "value": "reduces"}
    ]},
    {"smiles": "CCC(CC)COC(=O)[C@H](C)N[P@](=O)(OC[C@H]1O[C@@](C#N)(c2ccc3c(N)ncnn23)[C@H](O)[C@@H]1O)Oc1ccccc1", "note": "[Remdesivir]", "values": [
      {"measurement": "CC50", "setting": "[2]", "value": "> 10000", "unit": "nM"}
    ]},
    {"smiles": "COC[C@H]1OC(=O)c2coc3c2[C@@]1(C)C1=C(C3=O)[C@@H]2CCC(=O)[C@@]2(C)C[C@H]1OC(C)=O", "note": "[wortmannin]", "values": [
      {"measurement": "HCV replication", "setting": "[1]; inhibition of PI3K activity, ref Mohl et al., 2016", "value": "impairs"}
    ]},
    {"smiles": "COC(=O)N[C@H](C(=O)N1CCC[C@H]1c1nc(-c2ccc(-c3ccc(-c4c[nH]c([C@@H]5CCCN5C(=O)[C@@H](NC(=O)OC)C(C)C)n4)cc3)cc2)c[nH]1)C(C)C", "note": "[Daclatasvir]", "values": [
      {"measurement": "number of GFP-DFCP1 puncta in NS3-5B-expressing cells (NS5A wildtype)", "setting": "[3]", "value": "blunted"},
      {"measurement": "reduction of GFP-DFCP1 abundance in cells expressing NS3-5B with NS5A Y93H", "setting": "[3]", "value": "not observed"},
      {"measurement": "DMV formation", "setting": "[1]; NS5A inhibitor, ref Berger et al., 2014", "value": "block"},
      {"measurement": "CC50", "setting": "[4]", "value": "> 25", "unit": "nM"},
      {"measurement": "CC50", "setting": "[5]", "value": "> 25", "unit": "nM"}
    ]},
    {"smiles": "Nc1ncc(-c2ccnc(Nc3ccncc3)n2)c(CC2CC2)n1", "note": "[PIK-III]", "values": [
      {"measurement": "selectivity index (ratio of EC50 and CC50)", "setting": "[6]", "value": "> 10"},
      {"measurement": "SARS-CoV-2 replication efficiency", "setting": "[7]", "value": "inhibition"},
      {"measurement": "elevation of PI4P (PI4P puncta)", "setting": "[8]", "value": "no effect"},
      {"measurement": "abundance of GFP-DFCP1 puncta in SARS-CoV-2-infected cells", "setting": "[3]", "value": "reduced"},
      {"measurement": "abundance of GFP-DFCP1 puncta in starved cells", "setting": "[3]", "value": "reduced to background levels"},
      {"measurement": "number of GFP-DFCP1 puncta in HCV-replicating cells", "setting": "[3]", "value": "diminished"},
      {"measurement": "number of HA-nsp3-4-V5-induced DMVs", "setting": "[9]", "value": "significantly reduced"},
      {"measurement": "fold by which EC50 is below the CC50 value", "setting": "[10]; A549/ACE2 cells", "value": "≥ 250", "unit": "fold"},
      {"measurement": "EC50", "setting": "[10]; read-out: EC50, SARS-CoV-2", "value": 172, "unit": "nM"},
      {"measurement": "cell viability in HCV NS3-5B-transfected cells", "setting": "[11]", "value": "neither affected"},
      {"measurement": "cell viability in SARS-CoV-2 HA-nsp3-4-V5-transfected cells", "setting": "[11]", "value": "did not affect"},
      {"measurement": "EC50", "setting": "[12]", "value": "~170", "unit": "nM"}
    ]}
  ]
}
